Test results as given in patent US11884686B2, “Chelate compounds” (priority 2016, dated 2024).

Assays:
[1] = In vivo 54Mn biodistribution study in rats; details: rat; for % ID retained activity, Brain / % ID retained activity, Bladder / % ID retained activity, Blood / % ID retained activity, Heart / % ID retained activity, Kidney / % ID retained activity, Liver / % ID retained activity, Lungs / % ID retained activity, Muscle / % ID retained activity, Olfactory Bulb / % ID retained activity, Skin / % ID retained activity, Spleen / % ID retained activity, Tibia/Fibula / % ID retained activity, Femur / % ID retained activity, Pituitary Gland: 7 days post single iv 0.62 mmol/kg, LoD 0.002% ID (Prior Art, Chelate 4), 0.005% ID (Chelate 3); for % ID retained activity, Brain: ~30 μCi 54Mn; for in vivo stability from biodistribution profile: 7 days post single iv administration
Procedure: ^54Mn labeled chelates for biodistribution studies were prepared using the following method. To a 3 mL glass vial fitted with a magnetic stir bar was added the respective manganese containing chelate (1 mg) and 1.0 M ammonium formate, pH=4 (0.5 mL) (pH=5 for prior art Mn Chelate). ^54MnCl2 in 1.0 M HCl (˜500 μCi) was then added and the resulting solution was heated at 40° C. for 16 h. The resulting solution was purified via preparative HPLC to remove unchelated Mn. The radioactive fraction was collected and evaporated to dryness in vacuo. The radioactive residue was taken up in water containing non-radioactive Mn chelate (0.310 M) such that ˜30 μCi of radioactivity was formulated in a dose of 0.620 mmol Mn/kg with an injection volume of 2 mL/kg.
The experimental protocol conformed to the Guide for the Care and Use of Laboratory Animals and was approved by the IACUC at General Electric Global Research (Niskayuna, NY). Female Sprague-Dawley rats (130-150 g; Charles River Laboratories; Massachusetts; USA) were housed in standard cages, provided with ad libitum access to standard commercial food and water, and were maintained on an alternating 12-hr light-dark cycle in rooms with controlled temperature and humidity. Prior to injection of ^54Mn labelled chelates, rats were anesthetized via inhaled 3% Isoflurane (Piramal, NDC 66794-013-25; EZ-Anesthesia EZ700 Isoflurane Vaporizer, S/N 107). The injection site was prepped with alcohol wipes and a temporary 27 Ga catheter (Surflo SROX2419V) was placed in a tail vein. 30 μCi (0.74 MBq) of ^54Mn labelled chelate formulated with respective non-radioactive Mn(II) based chelate was dosed at 0.620 mmol non-radioactive Mn chelate/kg at an injection volume of 2 m L/kg was injected at a rate of 1 mL/min. Following injection animals were individually housed in wire bottom cages lined with filter paper until first urine void was collected. The rats were then cohoused in standard long term caging. 7 days post injection, the animals were sacrificed by CO2 immersion and organs and tissues of interest were removed and assayed for radioactivity using a Wizard 2480 gamma counter (Perkin Elmer, Beaconsfield, UK).
Naïve rats (Charles River Laboratories; Massachusetts; USA) received a single dose of 0.620 mmol/kg (approximately 30 μCi, 0.740 MBq) of test item via tail vein by injection. Additionally, one group of animals received osmolality matched saline (concentrated NaCl for injection: APP Pharmaceuticals part #NDC 63323-187-30 Lot #6008656 mixed with Sterile Water for Injection: Hospira part #NDC 0409-7990-09 Lot #49-396-DKas) as negative control (Table 1). After sacrifice, the organs and tissues were removed and assayed for residual radioactivity (i.e. ^54Mn organ retention) 7 days post single administration.

[2] = Water solubility of Mn(II) based chelates; format: physicochemical; details: thermodynamic from solid, 25° C.
Procedure: The solubility of Mn(II) based chelates was confirmed by dissolving purified Mn(II) based chelates ( 99% purity) in a prescribed volume of solvent (Millipore water 18.2 MegaOhm from a Millipore BioCell Benchtop unit) to provide a solution of given volume. Solutions were visually inspected for homogeneity and filtered through a 0.45 um PTFE filter membrane if necessary. The assessment was carried out at 25° C. Final sample concentrations were confirmed by determination of final Mn(II) concentration via ICP-MS (Spectro Arcos FHS[…] 10003910 or S/N 12006120).

[3] = In vitro proton relaxivity in human serum; format: physicochemical; details: 60 MHz, 40° C.
Procedure: Both the longitudinal and transverse relaxation times were measured in human serum (BioreclamationIVT, Cat #HMSRM-M) to reflect the efficiency of the Mn(II) based chelates in an environment close to physiological. The relaxivity assessment was carried out at a concentration ranging from 5 to 0 mM Mn(II), at 40° C. using a Minispec Mq benchtop NMR relaxometer (Bruker Instruments, Rheinstetten, Germany) operating at 60 MHz (1.4 T) with an inversion recovery pulse sequence. The longitudinal and transverse relaxivities of the complexes (e.g., r1 and r2 respectively) were calculated by plotting the reciprocal of their relaxation time versus the manganese concentration as determined via ICP-MS (Spectro Arcos FHS12, S/N 10003910 or S/N 12006120) for each Mn(II) based chelates. The dependence of T1 by B0 (i.e., magnetic field) applied was assessed via the acquisition of ^1H Nuclear Magnetic Relaxation Dispersion (NMRD) profiles. A dedicated Stelar SMARTracer Fast Field Cycling relaxometer (0.01-10 MHz) and a Bruker WP80 NMR electromagnet adapted to variable field measurements (20-80 MHz) and controlled by a SMARTracer PC-NMR console was used to record the ^1H NMRD profiles over an extended range of Larmor Frequencies (from 0.01 to 80 MHz). The temperature was monitored by a VTC91 temperature control unit and maintained by a gas flow. The temperature was determined by previous calibration with a Pt resistance temperature probe. High field relaxivities were measured on a Bruker AVANCE NMR spectrometer at 400 MHz. A total of 25 data points per NMRD profile were recorded at each temperature, pH 6.9 and with a manganese concentration in the samples of 6.99, 6.78 and 4.45 mM for the prior art Mn Chelate, Mn Chelate 4 and Mn Chelate 3, respectively. The concentration of Mn(II) in all samples was verified by Bulk Magnetic Susceptibility (BMS) measurements. Relaxivity was computed by subtracting the relaxation rate of the medium (distilled water) from the relaxation rate of the Mn(II) complex solution at each field strength and dividing the difference by the manganese concentration verified by BMS measurements.
The linear fit (R2>0.99 for all compounds examined) of 1/T1 and 1/T2 as a function of Mn concentration generated the r1 or r2 values reported in Table 4 for human serum.

| SMILES | % ID retained activity, Brain [1] | % ID retained activity, Bladder [1] | % ID retained activity, Blood [1] | % ID retained activity, Heart [1] | % ID retained activity, Kidney [1] | % ID retained activity, Liver [1] | % ID retained activity, Lungs [1] | % ID retained activity, Muscle [1] | % ID retained activity, Olfactory Bulb [1] | % ID retained activity, Skin [1] | % ID retained activity, Spleen [1] | % ID retained activity, Tibia/Fibula [1] | in vivo stability from biodistribution profile [1] | solubility [2] | r1 (longitudinal relaxivity) [3] | % ID retained activity, Femur [1] | % ID retained activity, Pituitary Gland [1] |
| --- | --- | --- | --- | --- | --- | --- | --- | --- | --- | --- | --- | --- | --- | --- | --- | --- | --- |
| CN(C[C@H](O)[C@@H](O)[C@H](O)[C@H](O)CO)C(=O)CCCN1CCN2Cc3cccc(n3)CN(CC1)C(CCC(=O)N(C)C[C@H](O)[C@@H](O)[C@H](O)[C@H](O)CO)C(=O)[O][Mn][O]C(=O)C2CCC(=O)N(C)C[C@H](O)[C@@H](O)[C@H](O)[C@H](O)CO (some centres unmarked) [Mn Chelate 3] | within endogenous level variability and LOD | ≤LOD | ≤LOD | ≤LOD | 0.026 ± 0.005% ID | 0.091 ± 0.017% ID | ≤LOD | ≤LOD | ≤LOD | ≤LOD | ≤LOD | ≤LOD | improved stability compared to the prior art Mn Chelate | > 500 mM | 8.0 mM⁻¹ s⁻¹ | – | – |
| CN1CCN2Cc3cccc(n3)CN(CC1)C(CCC(=O)N(C)C[C@H](O)[C@@H](O)[C@H](O)[C@H](O)CO)C(=O)[O][Mn][O]C(=O)C2CCC(=O)N(C)C[C@H](O)[C@@H](O)[C@H](O)[C@H](O)CO (some centres unmarked) [Mn Chelate 4] | – | ≤LOD | ≤LOD | ≤LOD | 0.038 ± 0.017% ID | 0.075 ± 0.011% ID | ≤LOD | ≤LOD | ≤LOD | ≤LOD | ≤LOD | ≤LOD | improved stability compared to the prior art Mn Chelate | > 500 mM | 5.3 mM⁻¹ s⁻¹ | ≤LOD | ≤LOD |
| CN1CCN2CC(=O)[O][Mn][O]C(=O)CN(CC1)Cc1cccc(n1)C2 [Prior Art Mn Chelate, reference compound] | 0.007 ± 0.002% ID | ≤LOD | ≤LOD | ≤LOD | 0.012 ± 0.002% ID | 0.072 ± 0.017% ID | ≤LOD | ≤LOD | ≤LOD | ≤LOD | ≤LOD | 0.002 ± 0.000% ID | – | > 500 mM | 3.0 mM⁻¹ s⁻¹ | 0.003 ± 0.001% ID | ≤LOD |
